Read-outs that look alike come from different tables or passages of the source. Where a SMILES comes first, the peptide text is derived from it.

This is an account of results in patent US8513380B2, “Peptides for binding fibrinogen and fibrin” (Georgia Tech Research Corporation, priority 2009, dated 2013).

The target of one assay is T1, fibrinogen fragment D (Homo sapiens, UniProt P02675+P02679).
T1 construct: Fibrinogen fragment D, comprising the C-terminal polymerization pockets of fibrinogen (i.e. D-domain) without the N-terminal knobs; purchased Enzyme Research Laboratories FIB3
T1 sequence (P02679 89-432 limits assumed): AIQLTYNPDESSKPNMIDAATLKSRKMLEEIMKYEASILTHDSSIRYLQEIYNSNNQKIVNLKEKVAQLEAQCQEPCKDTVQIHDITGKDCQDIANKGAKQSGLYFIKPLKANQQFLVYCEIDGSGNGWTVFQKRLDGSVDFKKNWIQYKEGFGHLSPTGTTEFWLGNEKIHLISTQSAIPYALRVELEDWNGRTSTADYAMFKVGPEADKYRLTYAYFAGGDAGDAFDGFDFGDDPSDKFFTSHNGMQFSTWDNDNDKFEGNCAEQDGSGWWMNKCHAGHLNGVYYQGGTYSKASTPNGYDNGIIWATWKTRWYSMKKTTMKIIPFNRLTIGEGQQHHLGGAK
T1 sequence (P02675 164-491 limits assumed): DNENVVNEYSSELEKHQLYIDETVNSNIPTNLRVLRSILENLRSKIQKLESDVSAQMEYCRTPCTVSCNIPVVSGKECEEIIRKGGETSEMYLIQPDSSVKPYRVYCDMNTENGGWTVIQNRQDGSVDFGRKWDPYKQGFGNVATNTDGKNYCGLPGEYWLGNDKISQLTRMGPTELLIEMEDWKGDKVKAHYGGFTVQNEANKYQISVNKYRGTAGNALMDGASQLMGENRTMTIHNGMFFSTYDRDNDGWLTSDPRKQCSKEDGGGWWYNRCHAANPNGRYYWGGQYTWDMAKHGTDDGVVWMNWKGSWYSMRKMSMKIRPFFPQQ
T1 sequence (P02671 124-216 partner limits assumed): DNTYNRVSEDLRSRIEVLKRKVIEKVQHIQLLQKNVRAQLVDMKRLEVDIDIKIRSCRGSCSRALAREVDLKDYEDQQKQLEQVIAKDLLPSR
Kind of assay: SPR binding kinetics of knob 'A' peptides on immobilized fibrinogen fragment D. The following applies: for kon / koff: Langmuir 1:1 model; for kon: read-out: ka, association rate; for koff: read-out: kd, dissociation rate; for Kd: heterogeneous ligand model, KD = kd/ka. As to the method: Human fibrinogen (Enzyme Research Laboratories, South Bend, Ind.) at 2 mg/mL was digested with 0.1 U/mL human plasmin (ERL) in HEPES+CaCl2 buffer (150 mM NaCl, 5 mM CaCl2, 25 mM HEPES; pH 7.4) overnight at room temperature. Fragment D was isolated as previously described, with slight modifications (Kostelansky M S, et al. Biochemistry. 2002; 41(40):12124-12132). Briefly, the plasmin-digested fibrinogen and GPRPAA (SEQ ID NO:10) beads were incubated for 30 min, with occasional agitation. The unbound proteins and protein fragments were removed with excessive washing with HEPES+CaCl2 buffer. Fragment D was eluted with 1M sodium bromide and 50 mM sodium acetate (pH 5.3). Eluted samples were pooled together and exchanged back into HEPES+CaCl2 buffer using a centrifugal filter (MWCO 10,000). Fragment D was verified by SDS-PAGE and stored at −80° C. until use.
The Biacore 2000 (Biacore Lifesciences, GE Healthcare, Pittsburgh, Pa.) was used investigate kinetic binding constants (ka and kd) of knob ‘A’ peptide variants for fibrinogen fragment D. Briefly, fragment D was covalently immobilized to gold-coated SPR sensor chips via self-assembled monolayer (SAM) surface chemistry in order to generate a non-fouling surface with a controlled density of reactive carboxylic acid groups. Mixed SAMs were generated on gold-coated chips as described previously (Petrie T A, et al. Biomaterials. 2006; 27(31):5459-5470) by incubating with a 1 mM mixture of tri(ethylene glycol)-terminated alkanethiols (HS-(CH2)11—(OCH2CH2)3—OH; EG3; ProChimia, Poland) and carboxylic acid-terminated alkanethiols (HS-(CH2)11—(OCH2CH2)6—OCH2COOH; EG6-COOH) for 4 hrs. Upon loading the sensor chip into the Biacore 2000, the EG6-COOH in all four flow cells was activated by flowing 200 mM 1-ethyl-3-(3-dimethylaminopropyl) carbodiimide (EDC; Sigma Aldrich, St. Louis, Mo.) and 50 mM N-hydroxysuccinimide (NHS; Sigma Aldrich) (5 μL/min for 10 min). Immediately following activation, fragment D was immobilized in three flow cells (5 μL/min for 10 min) to achieve 1800-2000 resonance units (RU; 1RU˜1 pg/mm^2). Unreacted NHS groups were quenched in all four flow cells (three sample cells and one reference cell) with 20 mM ethanolamine ([…] for 10 min). Upon stabilization of the baseline signal, kinetic binding experiments were run in duplicate with the peptide variants as the flow analytes. Five varying concentrations for each peptide (0.94 μM to 150 μM) were flowed at 25 μL/min for 4 min immediately followed by a 10 min dissociation phase. Between each run, the surface was regenerated with 1M sodium bromide and 50 mM sodium acetate (pH 6.0). SPR experiments were performed three times with varying peptide injection order to rule out binding trends associated with injection sequence. Peptide solutions were incubated with tris(2-carboxyethyl)phosphine (TCEP) immobilized on agarose beads (Thermo Fisher Scientific, Inc; Rockland, Ill.) to ensure reduction of any disulfide bonds between C-terminal cysteines.
SPR sensorgrams were analyzed with the aid of Scrubber 2 and ClampXP software (Center for Biomolecular Interactions Analysis, University of Utah) (Morton T A, et al. Methods Enzymol. 1998; 295:268-294; Morton T A, et al. Anal Biochem. 1995; 227(1):176-185; Myszka D G, et al. Trends Biochem Sci. 1998; 23(4):149-150). Prior to analysis, all sensorgrams were inspected for abnormalities (i.e. baseline drift, air spikes, or irregular deviations) and excluded. Reference cell responses were subtracted from corresponding active response curves. Double-referenced curves were acquired by further subtracting the reference cell blank buffer injections from each reference-subtracted response curve (Myszka D G. Mol. Recognit. 1999; 12(5):279-284). All double-referenced curves were normalized by the molecular weight of each peptide and multiplied by 1000 to account for minor variations in response due to molecular weight. The resulting curves were then analyzed and fitted to the kinetic models. […]
Background: Surface plasmon resonance follows binding to a sensor surface in real time, without labels.

The target of the next assay is T2, fibrinogen (Homo sapiens, UniProt P02675+P02679).
T2 sequence (P02679 27-437 isoform P02679-2 limits assumed): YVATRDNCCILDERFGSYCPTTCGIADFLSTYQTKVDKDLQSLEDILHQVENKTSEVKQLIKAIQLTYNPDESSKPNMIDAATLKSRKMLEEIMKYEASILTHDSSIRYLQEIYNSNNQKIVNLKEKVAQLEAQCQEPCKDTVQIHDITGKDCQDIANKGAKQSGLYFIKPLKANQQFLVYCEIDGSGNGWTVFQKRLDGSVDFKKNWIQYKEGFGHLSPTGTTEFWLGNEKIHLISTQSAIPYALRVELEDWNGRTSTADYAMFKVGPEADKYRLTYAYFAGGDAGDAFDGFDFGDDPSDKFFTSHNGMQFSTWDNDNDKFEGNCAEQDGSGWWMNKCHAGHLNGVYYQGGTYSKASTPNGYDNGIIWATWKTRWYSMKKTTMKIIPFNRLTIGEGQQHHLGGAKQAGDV
T2 sequence (P02675 31-491): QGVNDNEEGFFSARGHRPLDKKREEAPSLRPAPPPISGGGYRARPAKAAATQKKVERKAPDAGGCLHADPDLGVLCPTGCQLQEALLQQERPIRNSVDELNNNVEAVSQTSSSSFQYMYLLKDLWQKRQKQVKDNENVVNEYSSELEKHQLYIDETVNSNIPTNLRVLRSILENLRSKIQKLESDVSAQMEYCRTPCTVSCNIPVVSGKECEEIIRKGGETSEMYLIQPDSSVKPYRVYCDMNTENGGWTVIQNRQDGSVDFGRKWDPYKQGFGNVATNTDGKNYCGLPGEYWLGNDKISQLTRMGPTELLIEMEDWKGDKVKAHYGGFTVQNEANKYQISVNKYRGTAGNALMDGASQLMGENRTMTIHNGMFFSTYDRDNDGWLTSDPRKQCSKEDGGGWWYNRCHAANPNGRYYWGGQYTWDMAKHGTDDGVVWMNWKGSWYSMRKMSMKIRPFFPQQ
T2 sequence (P02671 20-629 partner limits assumed): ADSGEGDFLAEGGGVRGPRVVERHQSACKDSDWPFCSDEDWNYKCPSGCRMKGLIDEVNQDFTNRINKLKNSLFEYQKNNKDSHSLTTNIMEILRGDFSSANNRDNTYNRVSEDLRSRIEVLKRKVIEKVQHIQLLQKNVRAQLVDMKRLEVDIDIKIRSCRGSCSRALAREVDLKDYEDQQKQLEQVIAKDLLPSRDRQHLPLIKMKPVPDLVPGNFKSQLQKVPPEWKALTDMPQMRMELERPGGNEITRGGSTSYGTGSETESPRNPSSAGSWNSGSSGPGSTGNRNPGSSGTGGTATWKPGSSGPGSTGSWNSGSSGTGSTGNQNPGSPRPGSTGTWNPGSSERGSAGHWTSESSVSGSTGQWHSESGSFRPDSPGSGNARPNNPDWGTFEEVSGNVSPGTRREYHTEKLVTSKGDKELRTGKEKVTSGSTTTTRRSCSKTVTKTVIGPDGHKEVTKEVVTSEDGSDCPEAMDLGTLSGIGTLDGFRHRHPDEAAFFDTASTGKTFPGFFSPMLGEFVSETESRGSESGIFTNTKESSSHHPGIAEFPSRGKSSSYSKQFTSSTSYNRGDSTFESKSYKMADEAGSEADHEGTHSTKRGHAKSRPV
Kind of assay: ELISA specificity assay: soluble Gxxx tetrapeptides competing with immobilized GPRP-FnIII9-10-C. Format: binding. To be noted: tetrapeptide in 10^2- to 10^4-fold molar excess; one-hour pre-incubation. As to the method:
A modified ELISA technique was used to establish the affinity of fibrinogen for the various Gxxx-FnIII9-10-C (SEQ ID NO:20) proteins covalently immobilized on maleimide-activated plates via their C-terminal cysteines. Sulfhydryl-containing proteins/peptides were added to pre-blocked maleimide-activated 96-well plates (Pierce, Thermo Scientific, Rockford, Ill.) at 10 μg/mL in conjugation buffer (CB) comprising 150 mM NaCl, 100 mM phosphate, 10 mM EDTA, pH 7.2, with attachment occurring via maleimide-sulfhydryl (thioether) linkages. TCEP (1 mM) was added to maintain sulfhydryl groups in the reduced form. Following, unreacted maleimide groups were quenched with 20 μg/mL cysteine in CB. Human fibrinogen (25 μg/mL) was incubated with the substrates and unbound protein removed by washing. Bound fibrinogen was detected using HRP-conjugated goat anti-fibrinogen antibody (MP Biomedicals #55239) and 1-Step™ Ultra TMB-ELISA (Pierce). The TMB reaction was quenched with 1 M H2SO4 before measuring the Abs450 nm using the SPECTRAMAX® M2 (Molecular Devices, Sunnyvale, Calif.). All intervening wash steps were conducted using washing buffer (WB) comprising 150 mM NaCl, 100 mM phosphate, 0.05% Tween-20, pH 7.2; all binding steps were conducted using binding buffer (BB) comprising PBS+1% BSA. For basic affinity assays, the concentration of the fusion proteins was varied. For specificity assays, varying concentrations of Gxxx (SEQ ID NO:20) tetrapeptides (Genscript, Piscataway, N.J.) were added to the fibrinogen solution during incubation with the covalently immobilized proteins.
The tetrapeptides GPRV (SEQ ID NO:2) and GHRP (SEQ ID NO:3) are also known to bind fibrinogen via knob:pocket interactions, albeit with reduced affinities (Laudano A P, et al. Biochemistry 1980, 19(5):1013-1019).

Turning to “GPSPAAC (listed as Homo sapiens) [reference compound]”, in the assay with fibrinogen fragment D, the “SPR binding response (in words)” value is on record as “minimal binding response”.
Regarding `N=C(N)NCCC[C@H](NC(=O)[C@H](CCC(=O)O)NC(=O)[C@@H]1CCCN1C(=O)[C@@H]1CCCN1C(=O)[C@H](CCCNC(=N)N)NC(=O)[C@@H]1CCCN1C(=O)CN)C(=O)N[C@@H](CS)C(=O)O` [GPRPPERC] (H-GPRPPERC-OH), at fibrinogen fragment D, the kon came to 1290 ± 30 M⁻¹ s⁻¹ and the koff was found to be 0.00992 ± 0.00013 s⁻¹. Also, the Kd at fibrinogen fragment D (site 1, read-out: KD1) worked out at 18.2 µM. Moreover, the Kd on fibrinogen fragment D (site 2, read-out: KD2) is 2.93 µM.
GPRV (listed as Homo sapiens): the “competition with immobilized GPRP-FnIII9-10-C for binding to fibrinogen” value with fibrinogen was “to a lesser extent as compared to GPRP”.
Regarding `CC(C)[C@H](NC(=O)[C@H](CCCNC(=N)N)NC(=O)[C@@H]1CCCN1C(=O)CN)C(=O)N[C@H](C(=O)N[C@@H](C)C(=O)N[C@@H](C)C(=O)N[C@@H](CS)C(=O)O)C(C)C` [GPRVVAAC] (H-GPRVVAAC-OH), the kon at fibrinogen fragment D worked out at 90 ± 1 M⁻¹ s⁻¹. The koff at fibrinogen fragment D was determined as 0.01073 ± 4e-05 s⁻¹. In addition, the Kd on fibrinogen fragment D (site 1, read-out: KD1) is 48.5 µM; at fibrinogen fragment D (site 2, read-out: KD2), 25 µM.
For `C[C@H](NC(=O)[C@@H]1CCCN1C(=O)[C@H](Cc1ccccc1)NC(=O)[C@@H]1CCCN1C(=O)[C@H](CCCNC(=N)N)NC(=O)[C@@H]1CCCN1C(=O)CN)C(=O)N[C@@H](CS)C(=O)O` [GPRPFPAC] (H-GPRPFPAC-OH), at fibrinogen fragment D, the kon was found to be 12500 ± 260 M⁻¹ s⁻¹ and the koff came to 0.00727 ± 8e-05 s⁻¹. For the same compound, the Kd on fibrinogen fragment D (site 1, read-out: KD1) came to 3.73 µM. Besides, the Kd at fibrinogen fragment D (site 2, read-out: KD2) was 1.08 µM.
As to GHRP (listed as Homo sapiens), in the assay with fibrinogen, the “competition with immobilized GPRP-FnIII9-10-C for binding to fibrinogen” value is listed as “not a significant competitor”.
Turning to `C[C@H](NC(=O)[C@H](C)NC(=O)[C@@H]1CCCN1C(=O)[C@H](CCCNC(=N)N)NC(=O)[C@@H]1CCCN1C(=O)CN)C(=O)N[C@@H](CS)C(=O)O` [GPRPAAC] (H-GPRPAAC-OH), the kon on fibrinogen fragment D is 1140 ± 30 M⁻¹ s⁻¹. Moreover, the koff at fibrinogen fragment D was determined as 0.0117 ± 0.00017 s⁻¹. The Kd on fibrinogen fragment D (site 1, read-out: KD1) worked out at 4.53 µM; at fibrinogen fragment D (site 2, read-out: KD2), 8.52 µM.
The matching figures for `CC(C)[C@H](NC(=O)[C@H](CCCNC(=N)N)NC(=O)[C@@H]1CCCN1C(=O)CN)C(=O)N[C@H](C(=O)N[C@@H](CCC(=O)O)C(=O)N[C@@H](CCCNC(=N)N)C(=O)N[C@@H](CS)C(=O)O)C(C)C` [GPRVVERC] (H-GPRVVERC-OH): 280 ± 4 M⁻¹ s⁻¹, 0.02343 ± 0.00023 s⁻¹, 53.9 µM and 15.7 µM.
